# In patent publication US9597407B2, “Targeted antimicrobial moieties” (C3 Jian, Inc., priority 2009, dated 2017):
# “Also recorded” adds a separate entry of the source. Ends that are not written are not given here.
# Tests used:
# bacteria = assay: Binding of targeting peptides to microorganisms (Table 3); settings: preferably 1x PBS; for Target(s) (microorganisms bound by the targeting peptide) / Target(s) (microorganism bound by the targeting peptide): peptide binding in aqueous buffers that varied depending on peptide solubility
# microorganisms = assay: Morphology, biofilm and growth disruption by peptides (Table 5); type: cell-based; set-up: key: A: Peptide aggregates; B: Less hyphal formation; Clumps; Diffuse clumps and small polyps; F: Diffuse growth; H: Thin; I: Growth inhibition; Microcolony formation; Rippled; Small polyps; Thick; W: Halo formation on top, microlonies on bottom
# Excerpt: In certain embodiments peptides that induce alterations in phenotype or other biological activities can also be used as antimicrobial effector moieties.
# [1] = microorganism the targeting peptide binds, binding in aqueous buffers that varied with peptide solubility
# [2] = microorganism bound by the targeting peptide, binding in aqueous buffers chosen by peptide solubility
substance,measurement,setting,value
PF-426 (MLQKYTQMISVTKCIITKNKKTQENVDAYN; Peptide with targeting and/or antimicrobial activity),Target(s) (microorganisms bound by the targeting peptide),bacteria,S. epidermidis and E. coli and P. aeruginosa and C. albicans and MRSA and S. pneumoniae and E. faecalis and C. jeikeium
same,"Organism, effect (morphology, biofilm and growth disruption)",microorganisms; C. albicans,C. albicans (A)
same,"Organism, effect (morphology, biofilm and growth disruption)",microorganisms; C. jejuni,C. jejuni (D)
same,"Organism, effect (morphology, biofilm and growth disruption)",microorganisms; E. coli,E. coli (C)
same,"Organism, effect (morphology, biofilm and growth disruption)",microorganisms; E. faecalis,E. faecalis (D)
same,"Organism, effect (morphology, biofilm and growth disruption)",microorganisms; MRSA,MRSA (D)
same,"Organism, effect (morphology, biofilm and growth disruption)",microorganisms; S. epidermidis,S. epidermidis (D)
same,"Organism, effect (morphology, biofilm and growth disruption)",microorganisms; S. pneumoniae,S. pneumoniae (D)
PF-652 (chain 1 FLAPARPDLQAQRQALAQ; chain 2 FLAPARPDLQAQRQALAQ; Peptide with targeting and/or antimicrobial activity),Target(s) (microorganism bound by the targeting peptide),bacteria,Mycobacteria spp
same,"Organism, effect (morphology, biofilm and growth disruption)",microorganisms; S. pneumoniae,S. pneumoniae (A)
WSRVPGHSDTGWKVWHRW-NH2 [PF-547],Target(s) (microorganisms bound by the targeting peptide),bacteria,S. epidermidis and E. coli and P. aeruginosa and C. albicans and MRSA and S. pneumoniae and E. faecalis
same,"Organism, effect (morphology, biofilm and growth disruption)",microorganisms; B. subtilis,B. subtilis (I)
same,"Organism, effect (morphology, biofilm and growth disruption)",microorganisms; E. faecalis,E. faecalis (R)
same,"Organism, effect (morphology, biofilm and growth disruption)",microorganisms; MRSA,MRSA (M)
same,"Organism, effect (morphology, biofilm and growth disruption)",microorganisms; S. epidermidis,S. epidermidis (R)
PF-607 (YIESDPRKFDYIFGAIRDH; Peptide with targeting and/or antimicrobial activity),Target(s) (microorganism bound by the targeting peptide),bacteria,S. epidermidis and P. mirabilis and E. coli and MRSA and S. pneumoniae and C. jeikeium
same,"Organism, effect (morphology, biofilm and growth disruption)",microorganisms; C. jejuni,C. jejuni (R)
same,"Organism, effect (morphology, biofilm and growth disruption)",microorganisms; E. faecalis,E. faecalis (A)
same,"Organism, effect (morphology, biofilm and growth disruption)",microorganisms; MRSA,MRSA (S)
same,"Organism, effect (morphology, biofilm and growth disruption)",microorganisms; S. epidermidis,S. epidermidis (M)
same,"Organism, effect (morphology, biofilm and growth disruption)",microorganisms; S. pneumoniae,S. pneumoniae (R)
PF-666 (chain 1 PNRRSRPR; chain 2 PNRRSRPR; Peptide with targeting and/or antimicrobial activity),Target(s) (microorganism bound by the targeting peptide),bacteria,Mycobacteria spp
same,"Organism, effect (morphology, biofilm and growth disruption)",microorganisms; S. pneumoniae,S. pneumoniae (A)
PF-008 (chain 1 MIEIGSIAYLNGGSKKYNHILNQENR; chain 2 MIEIGSIAYLNGGSKKYNHILNQENR; Peptide with targeting and/or antimicrobial activity),Target(s),bacteria; [1],S. epidermidis and M. luteus and MRSA and C. jejuni
same,"Organism, effect",microorganisms; B. subtilis,B. subtilis (D)
same,"Organism, effect",microorganisms; C. jejuni,C. jejuni (R)
PF-416 (SKAGLYGKIERSDKRE; Peptide with targeting and/or antimicrobial activity),Target(s) (microorganisms bound by the targeting peptide),bacteria,S. pneumoniae; also recorded: C. jeikeium
same,"Organism, effect",microorganisms; S. pneumoniae,S. pneumoniae (H)
PF-639 (chain 1 QATQIKSWIDRLLVSED; chain 2 QATQIKSWIDRLLVSED; Peptide with targeting and/or antimicrobial activity),Target(s) (microorganism bound by the targeting peptide),bacteria,S. pneumoniae; also recorded: C. jeikeium
same,"Organism, effect (morphology, biofilm and growth disruption)",microorganisms; C. albicans,C. albicans (B)
same,"Organism, effect (morphology, biofilm and growth disruption)",microorganisms; E. faecalis,E. faecalis (H)
same,"Organism, effect (morphology, biofilm and growth disruption)",microorganisms; MRSA,MRSA (R)
same,"Organism, effect (morphology, biofilm and growth disruption)",microorganisms; S. pneumoniae,S. pneumoniae (I)
PF-188 (ARTFAGRLGTRYFGGLMRSTKA; Peptide with targeting and/or antimicrobial activity),Target(s),bacteria; [2],S. epidermidis and M. luteus and E. coli and C. albicans and MRSA and E. faecalis
same,"Organism, effect",microorganisms; C. jeikeium,C. jeikeium (H)
PF-687 (chain 1 AKRVLSLAVAPHRRQPVQGT; chain 2 AKRVLSLAVAPHRRQPVQGT; Peptide with targeting and/or antimicrobial activity),Target(s) (microorganism bound by the targeting peptide),bacteria,Mycobacteria spp
same,"Organism, effect (morphology, biofilm and growth disruption)",microorganisms; S. pneumoniae,S. pneumoniae (A)
HCVIGNVVDIANLLKRRAVYRDIADVIKMR [PF-071],Target(s),bacteria; [1],S. epidermidis and E. coli and P. aeruginosa and C. albicans and MRSA
same,"Organism, effect",microorganisms; B. subtilis,B. subtilis (D)
same,"Organism, effect",microorganisms; C. albicans,C. albicans (B)
same,"Organism, effect",microorganisms; C. jejuni,C. jejuni (A)
same,"Organism, effect",microorganisms; M. luteus,M. luteus (R)
same,"Organism, effect",microorganisms; MRSA,MRSA (C)
same,"Organism, effect",microorganisms; S. epidermidis,S. epidermidis (R)
same,"Organism, effect",microorganisms; S. pneumoniae,S. pneumoniae (A)
PF-584 (SYIKNLSNQKFLIAF; Peptide with targeting and/or antimicrobial activity),Target(s) (microorganisms bound by the targeting peptide),bacteria,S. epidermidis and M. luteus and P. mirabilis and C. albicans and MRSA and S. pneumoniae and E. faecalis and C. jeikeium
same,"Organism, effect (morphology, biofilm and growth disruption)",microorganisms; C. jejuni,C. jejuni (D)
same,"Organism, effect (morphology, biofilm and growth disruption)",microorganisms; E. coli,E. coli (C)
same,"Organism, effect (morphology, biofilm and growth disruption)",microorganisms; E. faecalis,E. faecalis (D)
same,"Organism, effect (morphology, biofilm and growth disruption)",microorganisms; MRSA,MRSA (D)
same,"Organism, effect (morphology, biofilm and growth disruption)",microorganisms; S. epidermidis,S. epidermidis (C)
same,"Organism, effect (morphology, biofilm and growth disruption)",microorganisms; S. pneumoniae,S. pneumoniae (D)
PF-313 (YITSHKNARAIIKKFERDEILEEVITHYLNRK; Peptide with targeting and/or antimicrobial activity),Target(s),bacteria; [2],S. epidermidis; also recorded: C. difficile
same,"Organism, effect",microorganisms; S. epidermidis,S. epidermidis (C)
MGIIAGIIKFIKGLIEKFTGK [PF-006],Target(s),bacteria; [1],S. epidermidis and M. luteus and E. coli and P. aeruginosa and MRSA and E. faecalis and C. jeikeium and C. jejuni
same,"Organism, effect",microorganisms; B. subtilis,B. subtilis (I)
same,"Organism, effect",microorganisms; C. jejuni,C. jejuni (D)
same,"Organism, effect",microorganisms; M. luteus,M. luteus (A)
same,"Organism, effect",microorganisms; MRSA,MRSA (I)
same,"Organism, effect",microorganisms; S. epidermidis,S. epidermidis (D)
same,"Organism, effect",microorganisms; S. pneumoniae,S. pneumoniae (R)
PF-593 (MEISTLKKEKLHVKDELSQYLANYKK; Peptide with targeting and/or antimicrobial activity),Target(s) (microorganisms bound by the targeting peptide),bacteria,C. jeikeium
same,"Organism, effect (morphology, biofilm and growth disruption)",microorganisms; E. faecalis,E. faecalis (A)
GNVHPESDFHNLIQFIKTFLYFTIFFKYFL [PF-C290],Target(s) (microorganism bound by the targeting peptide),bacteria,A. naeslundii; also recorded: F. nucleatum; also recorded: P. gingivalis; also recorded: S. mutans; also recorded: T. denticola
same,"Organism, effect (morphology, biofilm and growth disruption)",microorganisms; S. mutans,S. mutans (F)
VMQSLYVKPPLILVTKLAQQN [PF-511],Target(s) (microorganisms bound by the targeting peptide),bacteria,E. coli; also recorded: P. aeruginosa; also recorded: S. pneumoniae; also recorded: C. jeikeium
same,"Organism, effect (morphology, biofilm and growth disruption)",microorganisms; S. pneumoniae,S. pneumoniae (H)
PF-C120 (ASLSTMTFKVMELKELIILLCGLTMLMIQTEFV; Peptide with targeting and/or antimicrobial activity),Target(s) (microorganism bound by the targeting peptide),bacteria,A. naeslundii; also recorded: F. nucleatum; also recorded: P. gingivalis; also recorded: S. mutans; also recorded: T. denticola
same,"Organism, effect (morphology, biofilm and growth disruption)",microorganisms; F. nucleatum,F. nucleatum (T)
PF-135 (PPARPARIPQTPTLHGASLFRQRS; Peptide with targeting and/or antimicrobial activity),Target(s),bacteria; [2],S. epidermidis and M. luteus and E. coli and P. aeruginosa and MRSA and C. jeikeium and M. smegmatis
same,"Organism, effect",microorganisms; C. jeikeium,C. jeikeium (R)
PF-647 (chain 1 GTFLGQKCAAATAS; chain 2 GTFLGQKCAAATAS; Peptide with targeting and/or antimicrobial activity),Target(s) (microorganism bound by the targeting peptide),bacteria,Mycobacteria spp
same,"Organism, effect (morphology, biofilm and growth disruption)",microorganisms; C. albicans,C. albicans (B)
same,"Organism, effect (morphology, biofilm and growth disruption)",microorganisms; S. pneumoniae,S. pneumoniae (R)
PF-688 (chain 1 ARNHAVIPAG; chain 2 ARNHAVIPAG; Peptide with targeting and/or antimicrobial activity),Target(s) (microorganism bound by the targeting peptide),bacteria,Mycobacteria spp
same,"Organism, effect (morphology, biofilm and growth disruption)",microorganisms; S. pneumoniae,S. pneumoniae (A)
PF-010 (chain 1 MDIDVNKLLQAFVYFKSFEKLRHNNS; chain 2 MDIDVNKLLQAFVYFKSFEKLRHNNS; Peptide with targeting and/or antimicrobial activity),Target(s),bacteria; [1],S. epidermidis; also recorded: M. luteus; also recorded: E. coli; also recorded: C. albicans
same,"Organism, effect",microorganisms; C. jeikeium,C. jeikeium (A)
same,"Organism, effect",microorganisms; M. luteus,M. luteus (A)
same,"Organism, effect",microorganisms; MRSA,MRSA (R)
same,"Organism, effect",microorganisms; S. epidermidis,S. epidermidis (S)
PF-180 (SGLGDLGFSSEAK; Peptide with targeting and/or antimicrobial activity),Target(s),bacteria; [2],S. epidermidis and M. luteus and P. aeruginosa and C. albicans and MRSA and E. faecalis and C. jejuni and M. smegmatis
same,"Organism, effect",microorganisms; S. epidermidis,S. epidermidis (C)
PF-212 (NDSKASN; Peptide with targeting and/or antimicrobial activity),Target(s),bacteria; [2],M. luteus; also recorded: P. aeruginosa
same,"Organism, effect",microorganisms; M. luteus,M. luteus (M)
PF-776 (VSILLYLSATIILPNVLRLLVARAIIVRV; Peptide with targeting and/or antimicrobial activity),Target(s) (microorganism bound by the targeting peptide),bacteria,S. epidermidis and M. luteus and P. mirabilis and C. albicans and MRSA and S. pneumoniae and E. faecalis
same,"Organism, effect (morphology, biofilm and growth disruption)",microorganisms; E. coli,E. coli (C)
same,"Organism, effect (morphology, biofilm and growth disruption)",microorganisms; M. luteus,M. luteus (C)
same,"Organism, effect (morphology, biofilm and growth disruption)",microorganisms; MRSA,MRSA (D)
same,"Organism, effect (morphology, biofilm and growth disruption)",microorganisms; S. epidermidis,S. epidermidis (D)
same,"Organism, effect (morphology, biofilm and growth disruption)",microorganisms; S. mutans,S. mutans (D)
same,"Organism, effect (morphology, biofilm and growth disruption)",microorganisms; S. pneumoniae,S. pneumoniae (C)
PF-686 (chain 1 LAVLMGYIGYRGWSGKRHINRQ; chain 2 LAVLMGYIGYRGWSGKRHINRQ; Peptide with targeting and/or antimicrobial activity),Target(s) (microorganism bound by the targeting peptide),bacteria,M. smegmatis
same,"Organism, effect (morphology, biofilm and growth disruption)",microorganisms; B. subtilis,B. subtilis (I)
same,"Organism, effect (morphology, biofilm and growth disruption)",microorganisms; C. albicans,C. albicans (B)
same,"Organism, effect (morphology, biofilm and growth disruption)",microorganisms; E. faecalis,E. faecalis (R)
same,"Organism, effect (morphology, biofilm and growth disruption)",microorganisms; MRSA,MRSA (M)
same,"Organism, effect (morphology, biofilm and growth disruption)",microorganisms; S. epidermidis,S. epidermidis (H)
same,"Organism, effect (morphology, biofilm and growth disruption)",microorganisms; S. pneumoniae,S. pneumoniae (A)
